Experimental data as given in patent US7153650B2, “Marker system for preparing and characterizing high-quality human embryonic stem cells” (Geron Corporation, priority 2003, dated 2006).
Marks after values point to notes of the source that are not given here.

System: hES cells
Assay: Quantitative RT-PCR analysis of gene expression in hESC differentiation (culture with RA or DMSO)
Format: cell-based, human
Settings: for Fold Change, 130 kDa leucine-rich protein (LRP 130) mRNA / Fold Change, Bone marrow stromal antigen 2 (BST-2) mRNA / Fold Change, Bone morphogenetic protein receptor, type Ia (BMPR1A) (ALK-3) mRNA / Fold Change, EST (GA_28053, T24677) / Fold Change, Early development regulator 1 (polyhomeotic 1 homolog) (EDR1) mRNA / Fold Change, Ephrin type-a receptor 1 (EPHA1) mRNA / Fold Change, FLJ31267 (acetylglucosaminyltransferase-like protein) mRNA / Fold Change, Fibroblast growth factor receptor 3 precursor (FGFR-3) mRNA / Fold Change, Forkhead box h1 (FOXH1) mRNA / Fold Change, Forkhead box o1a (foxo1a) mRNA / Fold Change, Gamma-aminobutyric acid (GABA) A receptor, beta 3 mRNA / Fold Change, Gastrin-releasing peptide receptor (GRP-R) mRNA / Fold Change, Glypican-2 (cerebroglycan) mRNA / Fold Change, Hypothetical protein BC018070 mRNA / Fold Change, Hypothetical protein FLJ14549 mRNA / Fold Change, Kallmann syndrome 1 sequence (KAL1) mRNA / Fold Change, Krab-zinc finger protein SZF1-1 mRNA / Fold Change, Left-right determination, factor b (LEFTB) mRNA / Fold Change, Nell2 (NEL-like protein 2) mRNA / Fold Change, Notch 1 (N1) mRNA / Fold Change, Octamer-binding transcription factor 3a (OCT-3A) (OCT-4) mRNA / Fold Change, Podocalyxin-like (PODXL) mRNA / Fold Change, Potassium channel subfamily k member 5 (TASK-2) mRNA / Fold Change, Protein tyrosine phosphatase, receptor-type, z polypeptide 1 (PTPRZ1) mRNA / Fold Change, Roundabout, axon guidance receptor, homolog 1 (ROBO1) mRNA / Fold Change, Sal-like 1 (SALL1) mRNA / Fold Change, Secreted phosphoprotein 1 (osteopontin) mRNA / Fold Change, Solute carrier family 6, member 8 (SLC6A8) mRNA / Fold Change, Telomerase reverse transcriptase (TERT) mRNA / Fold Change, Teratocarcinoma-derived growth factor 1 (CRIPTO) mRNA / Fold Change, Thy-1 co-transcribed mRNA / Fold Change, Zic family member 3 (ZIC3) mRNA / Fold Change, Zinc finger protein of cerebellum ZIC2 mRNA / Fold Change, Zinc finger protein, HSAL2 mRNA / Fold Change, Pr domain containing 14 (PRDM14) mRNA: hES cells cultured 1 week with 500 nM RA or 0.5% DMSO; for Fold Change, Pr domain containing 14 (PRDM14) mRNA: normalised to 18S rRNA, 2^-ddCT
Protocol: To verify the expression patterns of particular genes of interest at the mRNA level, extracts of undifferentiated hES cells and their differentiated progeny were assayed by real-time PCR. Cells were cultured for 1 week with 0.5% dimethyl sulfoxide (DMSO) or 500 nM retinoic acid (RA). The samples were amplified using sequence-specific primers, and the rate of amplification was correlated with the expression level of each gene in the cell population.
Taqman™ RT-PCR was performed under the following conditions: 1×RT Master Mix (ABI), 300 nM for each primer, and 80 nM of probe, and 10 pg to 100 ng of total RNA in nuclease-free water. The reaction was conducted under default RT-PCR conditions of 48° C. hold for 30 min, 95° C. hold for 10 min, and 40 cycles of 95° C. at 15 sec and 60° C. hold for 1 min. RNA was isolated by a guanidinium isothiocyanate method (RNAeasy™ kit, Qiagen) according to manufacturer's instructions, and subsequently DNAse treated (DNAfree™ kit, Ambion). Gene-specific primers and probes were designed by PrimerExpress™ software (Ver. 1.5, ABI). Probe oligonucleotides were synthesized with the fluorescent indicators 6-carboxyfluorescein (FAM) and 6-carboxy-tetramethylrhodamine (TAMRA) at the 5′ and 3′ ends, respectively. Relative quantitation of gene expression between multiple samples was achieved by normalization against endogenous 18S ribosomal RNA (primer and probe from ABI) using the ΔΔCT method of quantitation (ABI). Fold change in expression level was calculated as 2^−ΔΔCT.
Since the cells have been cultured in RA and DMSO for a short period, they are at the early stages of differentiation, and the difference in expression level is less dramatic than it would be after further differentiation. Of particular interest for following or modulating the differentiation process are markers that show modified expression within the first week of differentiation by more than 2-fold (*), 5-fold (**), 10-fold (***), or 100-fold (****).
KALL and EPHAL were not tested.

[1] = H9 hES cells after culturing for 7 days with RA or DM (FIG. 1)

With `CC1=C(/C=C/C(C)=C/C=C/C(C)=C/C(=O)O)C(C)(C)CCC1` [RA, retinoic acid] the “Fold Change, 130 kDa leucine-rich protein (LRP 130) mRNA” value was −1.9 fold, the “Fold Change, Bone marrow stromal antigen 2 (BST-2) mRNA” value was 1.1 fold and the “Fold Change, Bone morphogenetic protein receptor, type Ia (BMPR1A) (ALK-3) mRNA” value was −2.4 fold. For the same molecule, the “Fold Change, EST (GA_28053, T24677)” value was <−100* fold, the “Fold Change, Early development regulator 1 (polyhomeotic 1 homolog) (EDR1) mRNA” value was −1.8 fold and the “Fold Change, Ephrin type-a receptor 1 (EPHA1) mRNA” value was −1.3 fold. The “Fold Change, FLJ31267 (acetylglucosaminyltransferase-like protein) mRNA” value was −2.3 fold, the “Fold Change, Fibroblast growth factor receptor 3 precursor (FGFR-3) mRNA” value was 1.5 fold and the “Fold Change, Forkhead box h1 (FOXH1) mRNA” value was −1.8 fold. The “Fold Change, Forkhead box o1a (foxo1a) mRNA” value was −1.6 fold, the “Fold Change, Gamma-aminobutyric acid (GABA) A receptor, beta 3 mRNA” value was −2.8 fold and the “Fold Change, Gastrin-releasing peptide receptor (GRP-R) mRNA” value was −6.3 fold. The “Fold Change, Glypican-2 (cerebroglycan) mRNA” value was −1.5 fold, the “Fold Change, Hypothetical protein BC018070 mRNA” value was −3.2 fold and the “Fold Change, Hypothetical protein FLJ14549 mRNA” value was −2.3 fold. The “Fold Change, Kallmann syndrome 1 sequence (KAL1) mRNA” value was −1.1 fold, the “Fold Change, Krab-zinc finger protein SZF1-1 mRNA” value was −1.8 fold and the “Fold Change, Left-right determination, factor b (LEFTB) mRNA” value was −16.7 fold. The “Fold Change, Nell2 (NEL-like protein 2) mRNA” value was −1.3 fold, the “Fold Change, Notch 1 (N1) mRNA” value was 1.3 fold and the “Fold Change, Octamer-binding transcription factor 3a (OCT-3A) (OCT-4) mRNA” value was −3.7 fold. The “Fold Change, Podocalyxin-like (PODXL) mRNA” value was −2.6 fold, the “Fold Change, Potassium channel subfamily k member 5 (TASK-2) mRNA” value was −1.6 fold and the “Fold Change, Protein tyrosine phosphatase, receptor-type, z polypeptide 1 (PTPRZ1) mRNA” value was −1.7 fold. The “Fold Change, Roundabout, axon guidance receptor, homolog 1 (ROBO1) mRNA” value was 1.1 fold, the “Fold Change, Sal-like 1 (SALL1) mRNA” value was 1.4 fold and the “Fold Change, Secreted phosphoprotein 1 (osteopontin) mRNA” value was −3.8 fold. The “Fold Change, Solute carrier family 6, member 8 (SLC6A8) mRNA” value was −1.1 fold, the “Fold Change, Telomerase reverse transcriptase (TERT) mRNA” value was −2.1 fold and the “Fold Change, Teratocarcinoma-derived growth factor 1 (CRIPTO) mRNA” value was −4.0 fold. For the same molecule, the “Fold Change, Thy-1 co-transcribed mRNA” value was −12.5 fold, the “Fold Change, Zic family member 3 (ZIC3) mRNA” value was −1.7 fold and the “Fold Change, Zinc finger protein of cerebellum ZIC2 mRNA” value was 1.0 fold. For the same molecule, the “Fold Change, Zinc finger protein, HSAL2 mRNA” value was −1.4 fold and the “Fold Change, Pr domain containing 14 (PRDM14) mRNA” value was −1.9 fold.
`C[S+](C)[O-]` [DMSO, dimethyl sulfoxide] was tested, and the “Gene expression of ICAM in differentiated cells” value [1] was “below the limit of detection”, the “Gene expression of rhodopsin in differentiated cells” value [1] was “below the limit of detection” and the “Fold Change, 130 kDa leucine-rich protein (LRP 130) mRNA” value was −1.9 fold. For the same molecule, the “Fold Change, Bone marrow stromal antigen 2 (BST-2) mRNA” value was −1.9 fold, the “Fold Change, Bone morphogenetic protein receptor, type Ia (BMPR1A) (ALK-3) mRNA” value was −2.4 fold and the “Fold Change, EST (GA_28053, T24677)” value was <−100* fold. For the same molecule, the “Fold Change, Early development regulator 1 (polyhomeotic 1 homolog) (EDR1) mRNA” value was −5.6 fold, the “Fold Change, Ephrin type-a receptor 1 (EPHA1) mRNA” value was −1.9 fold and the “Fold Change, FLJ31267 (acetylglucosaminyltransferase-like protein) mRNA” value was −4.5 fold. For the same molecule, the “Fold Change, Fibroblast growth factor receptor 3 precursor (FGFR-3) mRNA” value was 2.3 fold, the “Fold Change, Forkhead box h1 (FOXH1) mRNA” value was −5.6 fold and the “Fold Change, Forkhead box o1a (foxo1a) mRNA” value was −2.9 fold. The “Fold Change, Gamma-aminobutyric acid (GABA) A receptor, beta 3 mRNA” value was −5.6 fold, the “Fold Change, Gastrin-releasing peptide receptor (GRP-R) mRNA” value was −9.1 fold and the “Fold Change, Glypican-2 (cerebroglycan) mRNA” value was −1.2 fold. The “Fold Change, Hypothetical protein BC018070 mRNA” value was −10.0 fold, the “Fold Change, Hypothetical protein FLJ14549 mRNA” value was −10.0 fold and the “Fold Change, Kallmann syndrome 1 sequence (KAL1) mRNA” value was −2.5 fold. For the same molecule, the “Fold Change, Krab-zinc finger protein SZF1-1 mRNA” value was −3.1 fold, the “Fold Change, Left-right determination, factor b (LEFTB) mRNA” value was −25.0 fold and the “Fold Change, Nell2 (NEL-like protein 2) mRNA” value was −1.3 fold. For the same molecule, the “Fold Change, Notch 1 (N1) mRNA” value was 1.0 fold, the “Fold Change, Octamer-binding transcription factor 3a (OCT-3A) (OCT-4) mRNA” value was −7.7 fold and the “Fold Change, Podocalyxin-like (PODXL) mRNA” value was −4.3 fold. For the same molecule, the “Fold Change, Potassium channel subfamily k member 5 (TASK-2) mRNA” value was 1.0 fold, the “Fold Change, Protein tyrosine phosphatase, receptor-type, z polypeptide 1 (PTPRZ1) mRNA” value was −3.3 fold and the “Fold Change, Roundabout, axon guidance receptor, homolog 1 (ROBO1) mRNA” value was 1.0 fold. For the same molecule, the “Fold Change, Sal-like 1 (SALL1) mRNA” value was −1.3 fold, the “Fold Change, Secreted phosphoprotein 1 (osteopontin) mRNA” value was −10.0 fold and the “Fold Change, Solute carrier family 6, member 8 (SLC6A8) mRNA” value was −1.1 fold. For the same molecule, the “Fold Change, Telomerase reverse transcriptase (TERT) mRNA” value was −2.3 fold, the “Fold Change, Teratocarcinoma-derived growth factor 1 (CRIPTO) mRNA” value was −12.5 fold and the “Fold Change, Thy-1 co-transcribed mRNA” value was −11.1 fold. For the same molecule, the “Fold Change, Zic family member 3 (ZIC3) mRNA” value was −5.3 fold, the “Fold Change, Zinc finger protein of cerebellum ZIC2 mRNA” value was −2.9 fold and the “Fold Change, Zinc finger protein, HSAL2 mRNA” value was −2.8 fold. For the same molecule, the “Fold Change, Pr domain containing 14 (PRDM14) mRNA” value was −8.3 fold.
